Assay results from paper PMC11720353, “Clove Essential Oil as a Source of Antitumoral Compounds Capable of Crossing the Blood–Brain Barrier: A Focus on the Effects of β-Caryophyllene and Eugenol in a Glioblastoma Cell Line” (International Journal of Molecular Sciences, 2024).

How the values were obtained:
[1] = system: U87 cells; test: Cell death assay (Annexin V/PI, flow cytometry); assay type: cell-based, human; details: EU 200 µM, BCA 125 µM, alone or in combination, 24 h
Method: HMC3 and U87 cells were seeded in duplicate into 12-well plates (10 × 10^4 cells/well). After 24 h of incubation at 37 °C and 5% CO2, the medium was replaced, and the cells were treated either with EU (200 µM) or BCA (125 µM), alone and in combination (EU 200 µM + BCA 125 µM). Following the 24 h treatment, the cells were co-stained with AV-APC and PI according to the manufacturer’s protocol (Biolegend, San Diego, CA, USA). Briefly, the cells were resuspended in binding buffer (100 µL) and incubated with AV-APC solution (5 µL) and PI solution (2 µL) for 15 min at room temperature. Then, the cells were diluted in a binding buffer (400 µL). A six-parameter, four-color FACSCalibur flow cytometer (Becton Dickinson, San Jose, CA, USA) was used, and at least 10,000 events were collected by acquisition using CellQuest software (Becton Dickinson, San Jose, CA, USA). The results were analyzed with the Paint-a-Gate software and expressed in percentage (%).

[2] = system: HMC3 cells; test: Cell cycle analysis (PI/RNase, flow cytometry); assay type: cell-based, human; details: EU 200 µM, BCA 125 µM, alone or in combination, 24 h
Method: (§1) Analysis of the effect of BCA and/or EU on the cell cycle was assessed with flow cytometry using propidium iodide (PI)/RNase solution, according to the manufacturer’s protocol (Immunostep, Salamanca, Spain), as previously described. HMC3 and U87 cells (30 × 10^4 cells/well) were seeded in triplicate into 6-well plates and incubated for 24 h at 37 °C and 5% CO2. Thereafter, the cells were treated either with EU (200 µM) or BCA (125 µM) alone or in combination (EU 200 µM + BCA 125 µM). After 24 h, the cells were detached and fixed in 70% ethanol for 60 min at 4 °C, washed twice with PBS, and then stained with 500 µL of PI/RNase solution. The results were acquired using CellQuest software and expressed as the calculated percentage of the cell population in each cell cycle phase (G0/G1, S and G2/M) according to the PI intensity.

[3] = system: U87 cells; test: Cell cycle analysis (PI/RNase, flow cytometry); assay type: cell-based, human; details: BCA 125 µM alone or with EU 200 µM, 24 h
Method: as §1

[4] = rat, in vivo, cited from earlier work
[5] = in vivo; details: male, Sprague-Dawley, rat; for Kp at 60 min: R (ratio of concentration between CSF and bloodstream)
Method: Male Sprague-Dawley rats (200–250 g) were purchased from the Charles River laboratories (Calco, Italy). BCA was administered to rats by intravenous and oral routes in order to evaluate the pharmacokinetic profiles in the bloodstream and cerebrospinal fluid (CSF). For the intravenous administration, BCA EO (84% w/w BCA content) was dissolved in ethanol to obtain a final BCA concentration of 8 mg/mL. A group (n = 4) of rats, fasted for 24 h, was anesthetized during the experimental period and then received via a femoral intravenous infusion (rate = 10 μL/min; 5 min) 50 µL of the 8 mg/mL ethanolic solution (BCA dose 2 mg/kg). This dosage was chosen basing on a previous study where BCA was intravenously administered to rats at a dose of about 1.5 mg/kg as a minor component of Artemisiae argyi Folium EO (5.3% w/w). For oral administration, BCA EO was dissolved in corn oil to obtain a final BCA concentration of 20 mg/mL. A total of 500 µL of this corn oil solution was orally administered by gavage to a group (n = 4) of rats kept fasting for 24 h (BCA dose 50 mg/kg).
At the end of the intravenous and oral administrations and at fixed time points, blood samples (100 μL) were collected. Moreover, CFS samples (about 30 μL) were withdrawn using the cisternal puncture method previously described. This method requires a single needle stick and allows the collection of serial (about 30 μL) CSF samples that are virtually blood-free. A total volume of a maximum of 120 μL of CSF/rat (i.e., four 30 μL samples/rat) was collected during the experimental session, choosing the time points (n = 4) to allow the restoration of the CSF physiological volume. The CSF samples (10 μL) were immediately analyzed via HPLC (see below) for the quantification of BCA. For the BCA analysis in the bloodstream, the blood samples (n = 4) were immediately added to 200 μL of ice-cold CH3CN, then 100 μL of the internal standard dissolved in CH3CN (100 μM GER-UDCA, obtained by the conjugation of geraniol with ursodeoxycholic acid) was further inserted. The samples were centrifuged at 16,000× g for 5 min, then about 300 μL of the supernatant was withdrawn and further centrifuged. Finally, 10 μL was analyzed via HPLC (see below) for BCA quantification. A blood sample (100 μL) was collected from each rat before the administration of the compound and was used as a control. The control samples were immediately added to 300 μL of ice-cold CH3CN in the absence of the internal standard and then treated as described above.
The BCA was quantified by the HPLC method, using a chromatographic apparatus that consisted of a modular system (model LC-10 AD VD pump and model SPD-10A VP variable wavelength UV−vis detector; Shimadzu, Kyoto, Japan) and an injection valve with a 20 μL sample loop (model 7725; Rheodyne, IDEX, Torrance, CA, USA). The separations were performed on a 5 μm Hypersil BDS C-18 column (150 mm × 4.6 mm i.d.; ThermoFisher Scientific S.p.A., Milan, Italy) equipped with a guard column packed with the same Hypersil material at room temperature by injecting 10 µL of the samples into the apparatus. Data were acquired and processed using CLASS-VP software, version 7.2.1 (Shimadzu Italia, Milan, Italy), installed on a personal computer. The mobile phase consisted of an isocratic mixture of water and acetonitrile at a ratio of 10:90 (v/v), with a flow rate of 1 mL/min. The detector was set at 205 nm. The retention times obtained were 7.5 min for BCA and 5.6 min for GER-UDCA.
The chromatographic precision was evaluated by repeated analyses (n = 6) of the same sample solution containing 100 μM (20.435 µg/mL) BCA dissolved in a mixture of water and CH3CN 25:75 (v/v). The chromatographic precision, expressed as the relative standard deviation (RSD) value, was 0.84%. […]

[6] = iv, 2 mg/kg, cerebrospinal fluid (CSF)
[7] = po, 50 mg/kg, cerebrospinal fluid (CSF)

C=C1CC/C=C(\C)CC[C@@H]2[C@@H]1CC2(C)C [BCA, β-Caryophyllene]
live (viable) cells, change with respect to control [1]: did not affect | effect on cell cycle [2]: no effects | decrease in percentage of cells in the S phase [3]: −49.4% | increase in percentage of cells in the G0/G1 phase [3]: 21.1% | oral acute LD50 ([4]; po): over 5000 mg/kg | No Observed Adverse Effect Level (NOAEL) dose [4]: 700 mg/kg | bioavailability ([5]; F (absolute bioavailability)): 2.11 ± 0.03% | half-life ([5]; iv, 2 mg/kg): 49.7 ± 2 min | time at which CSF concentration decreased to zero ([5]; iv, 2 mg/kg): ≤ 150 min | time at which bloodstream concentration decreased to zero ([5]; iv, 2 mg/kg): ≤ 180 min | AUC ([5]; iv, 2 mg/kg, bloodstream): 108000 ng·h/mL | AUC [5, 6]: 6290 ng·h/mL | Cmax [5, 6]: 8000 ± 800 ng/mL | Kp at 60 min ([5]; iv, 2 mg/kg): 0.08 ± 0.01 | Kp at 30 min ([5]; iv, 2 mg/kg, R (ratio of concentration between CSF and bloodstream) at CSF Tmax): 0.13 ± 0.01 | Tmax [5, 6]: 30 min | Cmax, bloodstream ([5]; po, 50 mg/kg): 22530 ± 90 ng/mL | time at which CSF concentration decreased to zero ([5]; po, 50 mg/kg): 120 min | time at which bloodstream concentration decreased to 0 ([5]; po, 50 mg/kg): 300 min | R (ratio of concentration between CSF and bloodstream) at CSF Tmax ([5]; po, 50 mg/kg, 90 min): 0.019 ± 0.002 | AUC ([5]; po, 50 mg/kg, bloodstream): 56800 ng·h/mL | AUC [5, 7]: 313 ng·h/mL | Cmax ([5]; po, 50 mg/kg, bloodstream): 22500 ± 900 ng/mL | Cmax [5, 7]: 420 ± 40 ng/mL | Kp at 60 min ([5]; po, 50 mg/kg): ~0.01 | Kp at 90 min ([5]; po, 50 mg/kg, R (ratio of concentration between CSF and bloodstream) at CSF Tmax): ~0.02 | Tmax ([5]; po, 50 mg/kg, bloodstream): 60 min | Tmax [5, 7]: 90 min
